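Five compound concentrations were applied to cells in 96-well plates for 48 hours; endpoints were derived by simple linear interpolation of the resulting dose-response curve. Abbreviation: GI50, concentration required for 50% inhibition of growth.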 Calls of active or inactive are those of the source. Cut-off read from the data, not from the text of the source: active = GI50 up to about 1.1 µM and inactive = higher.
How the values were obtained:
Assay in all cases: NCI anticancer screen, dose series, 48 h
786-0 = tested on: 786-0
A498 = tested on: A498
A549 = tested on: A549
ACHN = tested on: ACHN
BT-549 = tested on: BT-549
CAKI-1 = tested on: CAKI-1
CCRF-CEM = tested on: CCRF-CEM
COLO 205 = tested on: COLO 205
DU-145 = tested on: DU-145
EKVX = tested on: EKVX
HCC 2998 = tested on: HCC 2998
HCT-116 = tested on: HCT-116
HCT-15 = tested on: HCT-15
HL-60 = tested on: HL-60
HOP-62 = tested on: HOP-62
HOP-92 = tested on: HOP-92
HT-29 = tested on: HT-29
IGROV-1 = tested on: IGROV-1
K562 = tested on: K562
KM12 = tested on: KM12
LOX IMVI = tested on: LOX IMVI
M14 = tested on: M14
MCF7 = tested on: MCF7
MDA-MB-231 = tested on: MDA-MB-231
MDA-MB-435 = tested on: MDA-MB-435
MOLT-4 = tested on: MOLT-4
NCI-H226 = tested on: NCI-H226
NCI-H23 = tested on: NCI-H23
NCI-H460 = tested on: NCI-H460
NCI-H522 = tested on: NCI-H522
NCI/ADR-RES = tested on: NCI/ADR-RES
OVCAR-3 = tested on: OVCAR-3
OVCAR-4 = tested on: OVCAR-4
OVCAR-5 = tested on: OVCAR-5
OVCAR-8 = tested on: OVCAR-8
PC-3 = tested on: PC-3
RPMI-8226 = tested on: RPMI-8226
RXF 393 = tested on: RXF 393
SF-268 = tested on: SF-268
SF-295 = tested on: SF-295
SF-539 = tested on: SF-539
SK-MEL-28 = tested on: SK-MEL-28
SK-MEL-2 = tested on: SK-MEL-2
SK-MEL-5 = tested on: SK-MEL-5
SK-OV-3 = tested on: SK-OV-3
SN12C = tested on: SN12C
SNB-75 = tested on: SNB-75
SR = tested on: SR
SW-620 = tested on: SW-620
T47D = tested on: T47D
TK-10 = tested on: TK-10
U-251 = tested on: U-251
UACC-257 = tested on: UACC-257
UACC-62 = tested on: UACC-62
UO-31 = tested on: UO-31
Hs-578T = tested on: Hs-578T
Malme-3M = tested on: Malme-3M
SNB-19 = tested on: SNB-19

Measured: GI50

CC(=O)OC12C3C4C1C1C2C3C41OC(C)=O (centres undefined)
> 100 µM: HCT-15
inactive: 786-0 > 100 µM | A498 > 100 µM | A549 > 100 µM | ACHN > 100 µM | BT-549 > 100 µM | CAKI-1 > 100 µM | CCRF-CEM > 100 µM | COLO 205 > 100 µM | DU-145 > 100 µM | EKVX > 100 µM | HCC 2998 > 100 µM | HCT-116 > 100 µM | HL-60 > 100 µM | HOP-62 > 100 µM | HOP-92 > 100 µM | HT-29 > 100 µM | IGROV-1 > 100 µM | K562 > 100 µM | KM12 > 100 µM | LOX IMVI > 100 µM | M14 > 100 µM | MCF7 > 100 µM | MDA-MB-231 > 100 µM | MDA-MB-435 > 100 µM | MOLT-4 > 100 µM | NCI-H226 > 100 µM | NCI-H23 > 100 µM | NCI-H460 > 100 µM | NCI-H522 > 100 µM | NCI/ADR-RES > 100 µM | OVCAR-3 > 100 µM | OVCAR-4 > 100 µM | OVCAR-5 > 100 µM | OVCAR-8 > 100 µM | PC-3 > 100 µM | RPMI-8226 > 100 µM | RXF 393 > 100 µM | SF-268 > 100 µM | SF-295 > 100 µM | SF-539 > 100 µM | SK-MEL-28 > 100 µM | SK-MEL-2 > 100 µM | SK-MEL-5 > 100 µM | SK-OV-3 > 100 µM | SN12C > 100 µM | SNB-75 > 100 µM | SR > 100 µM | SW-620 > 100 µM | T47D > 100 µM | TK-10 > 100 µM | U-251 > 100 µM | UACC-257 > 100 µM | UACC-62 > 100 µM | UO-31 > 100 µM

CC(C)[Si](Oc1ccc(CC2N(C(=O)c3ccc([N+](=O)[O-])cc3)C(CCc3ccccc3)CC2(C)C=O)cc1)(C(C)C)C(C)C (centres undefined)
inactive: 786-0 17.2 µM | A498 > 100 µM | ACHN > 100 µM | BT-549 21.3 µM | CAKI-1 > 100 µM | CCRF-CEM > 100 µM | COLO 205 > 100 µM | DU-145 61.1 µM | EKVX 82.6 µM | HCC 2998 > 100 µM | HOP-62 7.57 µM | HOP-92 13.9 µM | Hs-578T 32 µM | IGROV-1 7.38 µM | LOX IMVI > 100 µM | MDA-MB-231 12.9 µM | Malme-3M > 100 µM | NCI-H226 15.5 µM | NCI-H23 27.8 µM | NCI-H522 > 100 µM | OVCAR-3 > 100 µM | OVCAR-4 > 100 µM | OVCAR-5 > 100 µM | OVCAR-8 13.6 µM | PC-3 > 100 µM | RPMI-8226 > 100 µM | RXF 393 5.85 µM | SF-268 19.4 µM | SF-295 7.05 µM | SF-539 6.22 µM | SK-MEL-28 > 100 µM | SK-MEL-2 86.7 µM | SK-OV-3 27.7 µM | SNB-19 15.6 µM | SR 2.58 µM | T47D > 100 µM | TK-10 > 100 µM | U-251 20.5 µM | UACC-257 > 100 µM | UACC-62 > 100 µM | UO-31 > 100 µM
5.6 µM: HCT-15

Cc1ccc(C2c3c(n(C)c(=O)n(C)c3=O)OC(N(C)C)(N(C)C)C2(F)F)cc1 (centres undefined)
> 100 µM: HCT-15
inactive: 786-0 > 100 µM | A498 > 100 µM | A549 > 100 µM | ACHN > 100 µM | BT-549 > 100 µM | CAKI-1 > 100 µM | CCRF-CEM > 100 µM | COLO 205 > 100 µM | DU-145 > 100 µM | EKVX > 100 µM | HCC 2998 > 100 µM | HCT-116 > 100 µM | HOP-62 > 100 µM | HOP-92 > 100 µM | K562 > 100 µM | KM12 > 100 µM | LOX IMVI > 100 µM | M14 > 100 µM | MCF7 > 100 µM | MDA-MB-231 > 100 µM | MDA-MB-435 > 100 µM | MOLT-4 > 100 µM | NCI-H226 > 100 µM | NCI-H23 > 100 µM | NCI-H460 > 100 µM | NCI/ADR-RES > 100 µM | OVCAR-3 > 100 µM | OVCAR-4 51.4 µM | OVCAR-5 > 100 µM | PC-3 > 100 µM | RPMI-8226 > 100 µM | RXF 393 > 100 µM | SF-268 > 100 µM | SF-295 > 100 µM | SK-MEL-28 > 100 µM | SK-MEL-2 > 100 µM | SK-MEL-5 > 100 µM | SK-OV-3 > 100 µM | SNB-19 > 100 µM | SNB-75 > 100 µM | SW-620 > 100 µM | T47D > 100 µM | TK-10 > 100 µM | U-251 > 100 µM | UACC-257 > 100 µM | UACC-62 > 100 µM | UO-31 > 100 µM

O=NN1CCCS1(=O)=O
> 100 µM: HCT-15
inactive: 786-0 > 100 µM | A498 > 100 µM | A549 > 100 µM | ACHN > 100 µM | BT-549 > 100 µM | CAKI-1 > 100 µM | CCRF-CEM > 100 µM | COLO 205 > 100 µM | DU-145 > 100 µM | EKVX > 100 µM | HCC 2998 > 100 µM | HCT-116 > 100 µM | HL-60 > 100 µM | HOP-62 > 100 µM | HT-29 > 100 µM | Hs-578T > 100 µM | IGROV-1 > 100 µM | K562 > 100 µM | KM12 > 100 µM | LOX IMVI > 100 µM | M14 > 100 µM | MCF7 > 100 µM | MDA-MB-231 > 100 µM | MOLT-4 > 100 µM | Malme-3M > 100 µM | NCI-H226 > 100 µM | NCI-H23 > 100 µM | NCI-H460 > 100 µM | NCI/ADR-RES > 100 µM | OVCAR-3 > 100 µM | OVCAR-4 > 100 µM | OVCAR-5 > 100 µM | OVCAR-8 > 100 µM | PC-3 > 100 µM | RPMI-8226 > 100 µM | RXF 393 > 100 µM | SF-268 > 100 µM | SF-295 > 100 µM | SF-539 > 100 µM | SK-MEL-28 > 100 µM | SK-MEL-5 > 100 µM | SK-OV-3 > 100 µM | SN12C > 100 µM | SNB-19 > 100 µM | SNB-75 12.6 µM | SR > 100 µM | SW-620 > 100 µM | T47D > 100 µM | TK-10 > 100 µM | U-251 > 100 µM | UACC-257 > 100 µM | UACC-62 > 100 µM | UO-31 95.1 µM
